Experimental data: patent US8268786B2, “Anti-cancer tocotrienol analogues and associated methods” (First Tech International Limited, priority 2009, dated 2012)
pIC50: −log10 of the molar value. Where two headings read alike, the source gives them in different places.

Key:
[1] = tested on: ER-positive human breast cancer cells MCF7; experiment: MTT antiproliferative assay, MCF7 cells; assay type: cell-based; details: for pIC50: 96 hours, serum free medium, calculated by nonlinear regression, read-out: MCF7 IC50; for potency relative to parent natural tocotrienol / antiproliferative activity (in words): MCF7; for potency relative to parent natural tocotrienol: 4 and 10 versus Compound 1, 8 versus Compound 2; for IC50: Homo sapiens, MCF7, 96 h, read-out: MCF7 IC50 μM
Method: (§1) For each of the assays performed the compounds were dissolved in aqueous culture media by binding the compounds with bovine serum albumin (BSA).
(§2) An amount of each compound appropriate for the desired final compound concentration was placed in a 1.5 mL screw top glass vial and dissolved in 100 μL of 100% ethanol. Once dissolved, this ethanol/compound solution was added to a small volume of sterile 10% BSA in water and incubated overnight at 37° C. […] Ethanol was added to all treatment media such that the final ethanol concentration was the same in all treatment groups within a given experiment and was always less than 0.1%. Although the examples provided have been described in conjunction with specified amounts of ethanol and other compounds it should be understood that the invention is applicable to embodiments not having those limited concentration.
(§3) The cell growth of MCF7 (Example 24) and MDA-MB-231 (Example 25) cell lines was measured using the MTT assay procedures described above and an MTT assay kit (TACS™, Trevogen®, Inc., Gaithersburg, Md.). After passing the cells for 3-4 times, growing cells were incubated in a 96-well plate at a density of 8×10^3 cells per well, and allowed to attach for 24 hours. Complete growth medium was then replaced with 100 μL of RPMI serum free medium (GIBCO-Invitrogen, NY) containing various doses (20, 10, 5, 2 μM) of the tested compound and the culture continued at 37° C. under 5% CO2. After 96 hours, the incubated cells were treated with MTT solution (10 μL/well) at 37° C. for 4 hours. The color reaction was stopped by the addition of solubilization/stop solution (100 μL/well). The cells continued to be incubated at 37° C. to completely dissolve the formazan product. Absorbance of the samples was determined at 570 nm with an ELISA plate reader (BioTek, VT). Absorbance readings were converted to estimated cell numbers based on a standard curve prepared by plating various concentration of cells, as determined by hemocytometer, and measuring the absorbance of those cells at the start of each experiment. The IC50 value of each compound was calculated using nonlinear regression (curve fit) of log concentration versus the number of cells/well implemented using GraphPad Prism 5.0 program. The procedure was identical for both human breast cancer cell lines MCF7 and MDA-MB-231.

[2] = tested on: ER-negative human breast cancer cells MDA-MB-231; experiment: MTT antiproliferative assay, MDA-MB-231 cells; assay type: cell-based; details: for pIC50: 96 hours, serum free medium, calculated by nonlinear regression, read-out: MDA-MB-231 IC50; for IC50: Homo sapiens, MDA-MB-231, 96 h, read-out: MDA-MB-231 IC50 μM; for antiproliferative activity (in words): MDA-MB-231
Method: as §1, §2, §3

[3] = tested on: highly metastatic breast cancer cell line MDA-MB-231; experiment: BME Cell Invasion Assay (Boyden chamber, calcein-AM); assay type: cell-based, human; details: for anti-invasive activity (in words): MDA-MB-231, 5 μM
Method: Anti-Invasion Assays were performed to measure the anti-invasive properties of Compounds 1-21 using a 96 well basement membrane extract “BME” Cell Invasion Assay (Cultrex®, Trevogen, Catalog# 3455-096-K) with the highly metastatic breast cancer cell line MDA-MB-231. This assay employs a simplified Boyden Chamber design with a polyethylene terephthalate membrane (8 μm). Detection of cell invasion is quantified using calcein-AM. Cells internalize calcein-AM and intracellular esterases cleave the acetomethylester moiety to generate free calcein. Free calcein fluoresces brightly, and this fluorescence may be used to quantify the number of cells that have invaded across BME. (See Tamilarasan and Borghesani, referenced above)
About […] of basement membrane extract (BME, 1×) coat was added per well. After overnight incubation at 37° C. in a 5% CO2 incubator, 50,000/50 μL of MDA-MB-231 cells in serum free RPMI medium were added to the top chamber of each well, which contained the tested compound at a treatment concentration of 5 μM. About 150 μL of RPMI medium was added to the lower chamber, which contained 10% fetal bovine serum, penicillin/streptomycin, and fibronectin (1 μL/mL) and N-formyl-met-leu-phe (10 nM) as chemoattractants. Cells were allowed to migrate to the lower chamber at 37° C. in a CO2 incubator. After 24 h, the top and bottom chambers were aspirated and washed with a washing buffer solution. About 100 μL of cell dissociation solution/Calcein-AM solution was added to the bottom chamber and incubated for 1 hour at 37° C. in a CO2 incubator. The cells internalized calcein-AM, and the intracellular esterases cleaved the acetomethylester (AM) moiety to generate free calcein. Fluorescence of the samples was determined at 485 nm excitation; 520 nm emissions were measured using a plate reader (BioTek, VT). The numbers of cells that invaded through the BME coat were calculated using a standard curve.
Differences among the various treatment groups were determined by analysis of variance (ANOVA) followed by Dunnett's t-test. Differences were considered to be statistically significant at a value of <0.05, as compared to vehicle treated controls.

| SMILES | pIC50 [1] | pIC50 [2] | IC50 [1] | IC50 [2] | also measured |
| --- | --- | --- | --- | --- | --- |
| CC(C)=CCC/C(C)=C/CC/C(C)=C/CC[C@]1(C)CCc2c(C)c(O)c(C)c(C)c2O1 [Compound 1, α-tocotrienol, reference compound] | < 4.70 | < 5.00 |  |  |  |
| CC(C)=CCC/C(C)=C/CC/C(C)=C/CC[C@]1(C)CCc2cc(O)c(C)c(C)c2O1 [Compound 2, γ-tocotrienol, reference compound] | 4.94 | < 5.00 |  |  |  |
| CC(C)=CCC/C(C)=C/CC/C(C)=C/CC[C@]1(C)CCc2cc(O)cc(C)c2O1 [Compound 3, δ-tocotrienol, reference compound] | 4.81 | < 5.00 |  |  |  |
| CC(C)=CCC/C(C)=C/CC/C(C)=C/CCC1(C)CCc2c(C)c(OC(=O)NS(=O)(=O)c3ccccc3)c(C)c(C)c2O1 (centres unmarked) [Compound 4, 2,5,7,8-tetramethyl-2-((3E,7E)-4,8,12-trimethyltrideca-3,7,11-trienyl)chroman-6-ylphenylsulfonylcarbamate] | 5.35 | < 5.00 |  |  | potency relative to parent natural tocotrienol [1]: 8 fold |
| CC(C)=CCC/C(C)=C/CC/C(C)=C/CCC1(C)CCc2cc(OC(=O)NS(=O)(=O)c3ccccc3)c(C)c(C)c2O1 (centres unmarked) [Compound 5, 2,7,8-trimethyl-2-((3E,7E)-4,8,12-trimethyltrideca-3,7,11-trienyl)chroman-6-ylphenylsulfonylcarbamate] | < 5.00 | < 5.00 |  |  |  |
| CC(C)=CCC/C(C)=C/CC/C(C)=C/CCC1(C)CCc2cc(OC(=O)NS(=O)(=O)c3ccccc3)cc(C)c2O1 (centres unmarked) [Compound 6, 2,8-dimethyl-2-((3E,7E)-4,8,12-trimethyltrideca-3,7,11-trienyl)chroman-6-ylphenylsulfonylcarbamate] | 5.21 | < 5.00 |  |  | antiproliferative activity (in words) [1]: activities greater than the natural tocotrienols from which they were derived |
| CC(C)=CCC/C(C)=C/CC/C(C)=C/CC[C@]1(C)CCc2c(C)c(OC(=O)NS(=O)(=O)c3ccc(C)cc3)c(C)c(C)c2O1 [Compound 7, (R)-2,5,7,8-tetramethyl-2-((3E,7E)-4,8,12-trimethyltrideca-3,7,11-trienyl)chroman-6-yl tosylcarbamate] |  |  | 6.1 µM | > 10 µM | antiproliferative activity (in words) [1]: activities greater than the natural tocotrienols from which they were derived |
| CC(C)=CCC/C(C)=C/CC/C(C)=C/CC[C@]1(C)CCc2c(C)c(OC(=O)NS(=O)(=O)c3ccc(Cl)cc3)c(C)c(C)c2O1 [Compound 10, (R)-2,5,7,8-tetramethyl-2-((3E,7E)-4,8,12-trimethyltrideca-3,7,11-trienyl)chroman-6-yl 4-chlorophenylsulfonylcarbamate] |  |  | 2.4 µM | > 10 µM | potency relative to parent natural tocotrienol [1]: 8 fold |
| CC(C)=CCC/C(C)=C/CC/C(C)=C/CC[C@]1(C)CCc2cc(OC(=O)NS(=O)(=O)c3ccc(Cl)cc3)c(C)c(C)c2O1 [Compound 11, (R)-2,7,8-trimethyl-2-((3E,7E)-4,8,12-trimethyltrideca-3,7,11-trienyl)chroman-6-yl 4-chlorophenylsulfonylcarbamate] |  |  | > 10 µM | > 10 µM |  |
| CC(C)=CCC/C(C)=C/CC/C(C)=C/CC[C@]1(C)CCc2cc(OC(=O)NS(=O)(=O)c3ccc(Cl)cc3)cc(C)c2O1 [Compound 12, (R)-2,8-dimethyl-2-((3E,7E)-4,8,12-trimethyltrideca-3,7,11-trienyl)chroman-6-yl 4-chlorophenylsulfonylcarbamate] |  |  | > 10 µM | > 10 µM |  |
| CC(C)=CCC/C(C)=C/CC/C(C)=C/CC[C@]1(C)CCc2c(C)c(OC(=O)Nc3ccccc3)c(C)c(C)c2O1 [Compound 13, (R)-2,5,7,8-tetramethyl-2-((3E,7E)-4,8,12-trimethyltrideca-3,7,11-trienyl)chroman-6-yl phenylcarbamate] |  |  | > 20 µM | > 10 µM | anti-invasive activity (in words) [3]: more active than their natural tocotrienol parent compounds; antiproliferative activity (in words) [2]: improved activities |
| CC(C)=CCC/C(C)=C/CC/C(C)=C/CC[C@]1(C)CCc2cc(OC(=O)Nc3ccccc3)c(C)c(C)c2O1 [Compound 14, (R)-2,7,8-trimethyl-2-((3E,7E)-4,8,12-trimethyltrideca-3,7,11-trienyl)chroman-6-yl phenylcarbamate] |  |  | > 10 µM | > 10 µM |  |
| CC(C)=CCC/C(C)=C/CC/C(C)=C/CC[C@]1(C)CCc2cc(OC(=O)Nc3ccccc3)cc(C)c2O1 [Compound 15, (R)-2,8-dimethyl-2-((3E,7E)-4,8,12-trimethyltrideca-3,7,11-trienyl)chroman-6-yl phenylcarbamate] |  |  | > 10 µM | > 10 µM |  |
| CC(C)=CCC/C(C)=C/CC/C(C)=C/CC[C@]1(C)CCc2c(C)c(OC(=O)NCc3ccccc3)c(C)c(C)c2O1 [Compound 16, (R)-2,5,7,8-tetramethyl-2-((3E,7E)-4,8,12-trimethyltrideca-3,7,11-trienyl)chroman-6-yl benzylcarbamate] |  |  | > 20 µM | 7.2 µM | MDA-MB-231 cells invasion ([3]; 5 μM, 24 h): 8%; anti-invasive activity (in words) [3]: more active than their natural tocotrienol parent compounds; antiproliferative activity (in words) [2]: improved activities |
| CC(C)=CCC/C(C)=C/CC/C(C)=C/CC[C@]1(C)CCc2cc(OC(=O)NCc3ccccc3)c(C)c(C)c2O1 [Compound 17, (R)-2,7,8-trimethyl-2-((3E,7E)-4,8,12-trimethyltrideca-3,7,11-trienyl)chroman-6-yl benzylcarbamate] |  |  | > 10 µM | > 10 µM | anti-invasive activity (in words) [3]: more active than their natural tocotrienol parent compounds; antiproliferative activity (in words) [2]: improved activities |
| CC(C)=CCC/C(C)=C/CC/C(C)=C/CC[C@]1(C)CCc2cc(OC(=O)NCc3ccccc3)cc(C)c2O1 [Compound 18, (R)-2,8-dimethyl-2-((3E,7E) 4,8,12-trimethyltrideca-3,7,11-trienyl)chroman-6-yl benzylcarbamate] |  |  | > 10 µM | > 10 µM |  |
| CC(C)=CCC/C(C)=C/CC/C(C)=C/CC[C@]1(C)CCc2c(C)c(OC(=O)NC(=O)c3ccccc3)c(C)c(C)c2O1 [Compound 19, (R)-2,5,7,8-tetramethyl-2-((3E,7E)-4,8,12-trimethyltrideca-3,7,11-trienyl)chroman-6-yl benzoylcarbamate] |  |  | > 20 µM | > 10 µM |  |
| CC(C)=CCC/C(C)=C/CC/C(C)=C/CC[C@]1(C)CCc2cc(OC(=O)NC(=O)c3ccccc3)c(C)c(C)c2O1 [Compound 20, (R)-2,7,8-trimethyl-2-((3E,7E)-4,8,12-trimethyltrideca-3,7,11-trienyl)chroman-6-yl benzoylcarbamate] |  |  | > 10 µM |  |  |
| CC(C)=CCC/C(C)=C/CC/C(C)=C/CC[C@]1(C)CCc2cc(OC(=O)NC(=O)c3ccccc3)cc(C)c2O1 [Compound 21, (R)-2,8-dimethyl-2-((3E,7E)-4,8,12-trimethyltrideca-3,7,11-trienyl)chroman-6-yl benzoylcarbamate] |  |  | 5.6 µM |  |  |
